Key:
target bacterial strains = conditions: against its target bacterial strains; cited from earlier work
fungi = conditions: cited from earlier work
Drosophila melanogaster [1] = experiment: Development rate assay: time to adult emergence on diet seeded with Corynebacterium glutamicum (Example 8); format: in vivo; conditions: diet seeded with 10^9 CFUs of bacteria vs axenic/sterile diet; adults counted every 12 hours
Description: The media used to rear flies is cornmeal, molasses and yeast medium (11 g/l yeast, 54 g/l yellow cornmeal, 5 g/l agar, 66 ml/l molasses, and 4.8 ml/l propionic acid). All the components of the diet except propionic acid are heated together to 80° C. in deionized water with constant mixing for 30 minutes and let to cool to 60° C. Propionic acid is then mixed in and 50 ml of the diet is aliquoted into individual bottles and allowed to cool down and solidify. The flies are raised at 26° C., 16:8 hour light:dark cycle, at around 60% humidity.
On day one, 100 ul of a Corynebacterium glutamicum suspension in nutrient broth consisting of 10^9 colony forming units (CFUs) were added to five replicates of fly food. As controls, nutrient broth without the bacteria was added to five more bottles of fly food. Fertilized embryos collected from fruit flies were treated with 2% hypochlorite solution for five minutes and then washed with sterile water to remove any extracellular microbes from the embryos. 10 ul of the embryo suspension in water (one:three embryo:water suspension) was added to all the bacteria seeded and control fly food bottles. […] The time to adult emergence and the rate of emergence was measured in every replicate. From the time the first adult emerges from the pupa, the number of adult flies emerging was counted every 12 hours and rate of emergence was be computed.

Drosophila melanogaster [2] = experiment: Larval mass assay: larval area on defined diet, axenic or mono-associated with one bacterium (Example 8); format: in vivo; conditions: after 13 days, 10-15 larvae per replicate, FIG. 3
Text: For the experimental setup to measure the larval growth rate, defined diet was used (Piper et al., 2014, Nature Methods). Defined diet eliminates the effects of batch to batch variation in the ingredients used for the cornmeal based diet. In addition, the defined diet allows for the exclusion of individual components to test their effects on fly development.
To test whether the presence of bacteria producing amino acids can increase the body mass of developing larvae when raised on defined diet, we produced larvae that are axenic, and mono-associated with a single strain of bacterium. For these assays, three different bacteria were used, Corynebacterium glutamicum—a strain that produces glutamate, Corynebacterium glutamicum—a strain that produces methionine, and E. coli.
First, axenic embryos were generated. Fertilized embryos were collected from fruit flies over a 6 hour period on grape juice agar plates with yeast. To eliminate any bacterial contamination, the embryos were treated with 2% hypochlorite solution for five minutes and then washed thrice with sterile water. One volume of embryos was then suspended in 3 volumes of water.
The defined diet was aliquoted into vials and nine replicates were used for every condition being tested. […]
After 13 days, 10-15 randomly chosen larvae from each replicate were sampled, and their areas were measured, as a proxy to their biomass and weight. […]

## nisin
Target bacterial strains
  concentration showing antimicrobial activity: single-digit nanomolar concentration

## alirin B1
fungi
  antifungal activities: have been shown to have antifungal activities

## Corynebacterium glutamicum [C. glutamicum Glu]
Drosophila melanogaster [1]
  time to reach adulthood from embryos: reach adulthood faster than their bacteria free counterparts

## botrycidin AJ1316
fungi
  antifungal activities: have been shown to have antifungal activities

## Corynebacterium glutamicum [C. glu-Met]
Drosophila melanogaster [2]
  larval body size (area of the larvae, proxy to biomass and weight): largest body size on average

Reference: patent US11690387B2, “Methods and related compositions for manufacturing food and feed” (priority 2017, dated 2023)
